Patent publication US20260256792A1, “TREATMENT OF CHRONIC SPONTANEOUS URTICARIA BY ADMINISTERING (R)-2-[3-[4-AMINO-3-(2-FLUORO-4-PHENOXY-PHENYL)PYRAZOLO[3,4-D]PYRIMIDIN-1-YL]PIPERIDINE-1-CARBONYL]-4-METHYL-4-[4-(OXETAN-3-YL)PIPERAZIN-1-YL]PENT-2-ENENITRILE” (priority 2023, published 2026)

Key:
[1] = tested on: IgG anti-TPO; experiment: Phase 2 CSU study: serum IgG anti-TPO ELISA; type: in vivo, human; conditions: for IgG anti-TPO (IU) Median Percent Change from Baseline: Baseline to Week 12
Description: Blood samples were also collected through Week 12 to evaluate the change in baseline in various biomarkers, including sMRGPRX2, IgG anti-TPO, IgG anti-FCεRI, IgG anti-IgE, and IL-31.
(§1) Collection of biological samples for other biomarker research was also part of this study. The following samples for biomarker research were required and were to be collected from all participants in this study: • Serum and plasma samples for soluble biomarkers and cellular tests. Analytes included IgG anti-IgE, IgG anti-FcεRI, IgG anti-TPO, IgE anti-TPO, IL-31, and sMRGPRX2. • Blood samples for immune cell phenotyping, including measurement of eosinophil levels • Blood samples for BTK occupancy in peripheral blood mononuclear cells (PBMCs) at selected sites
For each patient, serum samples were to be collected on each of four visits (Visits 2, 4, 6, and end of study/follow up).
Serum analyte testing was to be performed using the following commercial assays: • sMRGPRX2 ELISA (Cat. No. #MBS933336; MyBioSource) • IL-31 HTRF assay (Cat. No. #62HIL31PEG; Cisbio/PerkinElmer) • IgG anti-TPO ELISA (Cat. No. #ORG503; Orgentec Diagnostica GmbH)
If dilutions were to be prepared, the same dilutions were to be prepared twice from each sample. These were to be measured on different plates. Each plate was to include a standard curve. Samples were to be measured twice for all biomarkers except for sMRGPRX2. Mean measurement values were to be calculated, and the concentration of the biomarker was to be calculated using GraphPad Prism 9 software (4-PL model).
The IgG anti-TPO ELISA was performed according to the manufacturer's instructions.
Assay data ranges are described below. • sMRGPRX2: 0.1 ng/mL-10 ng/mL • IgG anti-FCεRI: 0-10000 arbitrary units (AU) • IgG anti-TPO: 0-3000 international units (IU) • IgE anti-TPO: 0-500 AU • IgG anti-IgE: 0-100000 AU • IL-31: 0.1 ng/mL-20 ng/mL

[2] = tested on: eosinophils; experiment: Phase 2 CSU study: immune cell phenotyping, eosinophil levels; type: in vivo, human; conditions: for Eosinophils (10^9/L) Median Percent Change from Baseline: Baseline to Week 12
Description: as §1

CC(C)(C=C(C#N)C(=O)N1CCC[C@@H](n2nc(-c3ccc(Oc4ccccc4)cc3F)c3c(N)ncnc32)C1)N1CCN(C2COC2)CC1 [rilzabrutinib, (R)-2-[3-[4-amino-3-(2-fluoro-4-phenoxy-phenyl)pyrazolo[3,4-d]pyrimidin-1-yl]piperidine-1-carbonyl]-4-methyl-4-[4-(oxetan-3-yl)piperazin-1-yl]pent-2-enenitrile]
reduction from baseline for IgG anti-TPO ([1]; 400 mg TID, Week 12): 46.7%
IgG anti-TPO (IU) Median Percent Change from Baseline ([1]; 400 mg BID): −19.4%
IgG anti-TPO (IU) Median Percent Change from Baseline ([1]; 400 mg QPM): −39.9%
IgG anti-TPO (IU) Median Percent Change from Baseline ([1]; 400 mg TID): −46.7%
reduction in eosinophil levels ([2]; 400 mg TID, Week 12): 29.0%
Eosinophils (10^9/L) Median Percent Change from Baseline ([2]; 400 mg BID): −11.8%
Eosinophils (10^9/L) Median Percent Change from Baseline ([2]; 400 mg QPM): 7.7%
Eosinophils (10^9/L) Median Percent Change from Baseline ([2]; 400 mg TID): −29.0%
